# Tests used:
# [1] = target: JAK3 JH1 kinase (Homo sapiens, UniProt P52333); assay: JAK3 JH1 enzyme assay in vitro (TR-FRET); format: biochemical; settings: TR-FRET; read-out: JAK 3 JH1 IC50
# [2] = target: T1, hERG channel (Homo sapiens, UniProt Q12809); assay: hERG potassium channel inhibition assay (manual patch clamp); format: cell-based; settings: HEK-293 cell line stably expressing hERG channel, at the tested concentrations
# T1 construct: expressed in transfected cells; host or cells: HEK-293
# Experimental: Instrumentation: HEKA EPC 10 patch clamp amplifier.
# Method: in this experiment, the blocking effect of the compounds on the current of the HEK-293 cell line stably expressing hERG channel was measured using the manual patch clamp technique, and the risk of the compounds on the inhibition of cardiac hERG potassium channel was assessed by fitting the concentration effect relationship.
# Procedure: in the patch clamp operation, firstly, a capillary glass tube was pulled into a recording electrode using a microelectrode puller, then an electrode filled with intracellular solution was mounted into a microelectrode holder. A microelectrode manipulator was operated under an inverted microscope to immerse the electrode into an extracellular solution and the electrode resistance (Rpip) was recorded. Then, the electrode was slowly brought into contact with the cell surface, and a negative pressure was applied for suction to form a GΩ seal. At this point, a fast capacitance compensation was performed, and a negative pressure was continuously applied to suck and break the cell membrane to form a whole cell recording mode. Finally, a slow capacitance compensation was performed and experimental parameters including series resistance (Rs) and the like were recorded. No leakage compensation was performed. When the hERG current recorded by the whole cell was stable, the administration of drugs commenced, and each drug concentration acted for about 5 min (or until the current stabilization) before detecting the next concentration. A cover glass covered with cells was placed in a recording bath under an inverted microscope, the blank control extracellular solution and the working solution of the compounds to be tested sequentially flowed through the recording bath from low concentration to high concentration by using gravity perfusion to act on the cells, and solution exchange was performed using a peristaltic pump during recording. The current measured by each cell in the extracellular solution without the compound served as its own control group. Each concentration was independently assessed twice. All electrophysiological tests were performed at room temperature.
# Data Analysis: firstly, the tail current (Peak tail currentcompound) after the action of each drug concentration and the blank control tail current (Peak tail currentcontrol) were normalized, then the inhibition rate
# corresponding to each drug concentration was calculated, and the mean (Mean), standard deviation (SD) and standard error (SE) of the inhibition rate corresponding to each concentration were calculated, with data expressed as Mean±SE. The calculation of IC50 value and the fitting of dose-response curve for the compound were performed using GraphPad Prism software.
# [3] = system: mouse asthma model induced by OVA; assay: Mouse asthma model induced by OVA: inflammatory cells in bronchoalveolar lavage fluid; format: in vivo
# Experimental: (§1) The efficacy of the compounds according to the present invention in a mouse asthma model induced by OVA could be assessed using the following method:
# (§2) Test sample: the compound of Example 3 was weighed accurately, and dissolved in DMSO to prepare a solution at a concentration of 2 mg/mL.
# (§3) 30 female BALB/c mice were adaptively fed. After one week, 10 mice were randomly taken out and fed as a blank control group, and 20 mice were selected to establish the asthma model. The model mice were intraperitoneally injected with 0.2 mL of sensitizing solution for sensitization respectively on 0, 7 and 14 days. The sensitization solution contained 50 μg of OVA and 2 mg of Al(OH)3. The blank control group received an equivalent volume of physiological saline.
# (§4) From day 21 to day 23 after sensitization, the mice in the model group and the administration group were subjected to nebulization stimulation with 5% OVA for 30 min, and the mice in the blank control group received nebulization with physiological saline for the same duration.
# (§5) 30 min before daily stimulation of the mice, 50 μl of physiological saline was administered endotracheally to mice in the blank control and model groups, and 50 μl of the corresponding drug was administered endotracheally to mice in the Example 3 compound group, once daily for 3 consecutive days.
# After the airway hyperresponsiveness measurement, the mice were euthanized by cervical dislocation and fixed on a dissecting tray. The abdomens and thoracic cavities of the mice were opened, and the neck skin and excess tissues were excised to expose the mouse trachea. A small incision was made on the transverse axis of the trachea with small scissors, a pre-prepared 1 mL syringe needle was inserted therein, and the needle was fixed with surgical thread. 0.5 mL of pre-cooled phosphate-buffer solution (PBS) was aspirated with a 1 ml syringe and slowly injected into the lungs of the mice, followed by slow withdrawal. Each mouse was lavaged once, and a total of about 0.4 mL of lavage fluid was collected. The number of inflammatory cells in the bronchoalveolar lavage fluid was measured by a cell counter.
# (§6) Statistical analysis was conducted using SPSS software, Measurement data were expressed as mean±standard deviation. One Way ANOVA was used for inter-group comparisons, LSD test was used for those with homogeneous variance, and Dunnett-t test was used for those with heterogeneous variance. Differences were statistically significant with P<0.05.
# [4] = system: mouse asthma model induced by OVA; assay: Mouse asthma model induced by OVA: airway hyperresponsiveness (Penh); format: in vivo; settings: for Enhanced pause (Penh) value: 2 mg/mL, 50 μL endotracheally, once daily for 3 days
# Experimental: as §1, §2, §3, §4, §5
# Airway hyperresponsiveness was measured in each group of mice after the last stimulation. The mice were placed in a whole-body plethysmograph. After recording the baseline values of enhanced pause (Penh), the mice were stimulated by nebulized methacholine, wherein the concentrations of the methacholine were 0, 6.25 and 12.5 mg/mL from low to high, the nebulization volume was 100 μL per dose for 60 s.
# as §6
# [5] = target: JAK2 JH1 kinase (Homo sapiens, UniProt O60674); assay: JAK2 JH1 enzyme assay in vitro (TR-FRET); format: biochemical; settings: read-out: JAK 2 JH1 IC50
# [6] = target: T2, TYK2 JH1 kinase (Homo sapiens, UniProt P29597); assay: TYK2 JH1 enzyme assay in vitro (TR-FRET); format: biochemical
# T2 sequence (P29597 897-1176 limits assumed): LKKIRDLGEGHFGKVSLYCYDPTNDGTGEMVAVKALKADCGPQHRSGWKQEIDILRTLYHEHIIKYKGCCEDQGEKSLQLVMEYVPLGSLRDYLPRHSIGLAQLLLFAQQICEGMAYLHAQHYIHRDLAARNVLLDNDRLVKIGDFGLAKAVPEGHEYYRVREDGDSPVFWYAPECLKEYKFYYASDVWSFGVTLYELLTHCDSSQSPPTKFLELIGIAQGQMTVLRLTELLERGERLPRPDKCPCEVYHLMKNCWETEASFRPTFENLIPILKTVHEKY
# [7] = 2 mg/mL, 50 μL endotracheally, once daily for 3 days
# Sequence of JAK2 JH1 kinase (O60674 849-1124 limits assumed): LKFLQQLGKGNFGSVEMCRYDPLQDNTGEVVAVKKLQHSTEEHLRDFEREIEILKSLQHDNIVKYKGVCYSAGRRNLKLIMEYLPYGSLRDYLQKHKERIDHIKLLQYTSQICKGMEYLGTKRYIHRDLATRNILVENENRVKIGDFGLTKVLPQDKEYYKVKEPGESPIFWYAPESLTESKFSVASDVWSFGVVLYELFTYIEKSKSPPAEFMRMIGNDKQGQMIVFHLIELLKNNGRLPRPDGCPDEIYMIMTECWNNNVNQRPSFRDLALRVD
# T1 sequence (Q12809 whole entry): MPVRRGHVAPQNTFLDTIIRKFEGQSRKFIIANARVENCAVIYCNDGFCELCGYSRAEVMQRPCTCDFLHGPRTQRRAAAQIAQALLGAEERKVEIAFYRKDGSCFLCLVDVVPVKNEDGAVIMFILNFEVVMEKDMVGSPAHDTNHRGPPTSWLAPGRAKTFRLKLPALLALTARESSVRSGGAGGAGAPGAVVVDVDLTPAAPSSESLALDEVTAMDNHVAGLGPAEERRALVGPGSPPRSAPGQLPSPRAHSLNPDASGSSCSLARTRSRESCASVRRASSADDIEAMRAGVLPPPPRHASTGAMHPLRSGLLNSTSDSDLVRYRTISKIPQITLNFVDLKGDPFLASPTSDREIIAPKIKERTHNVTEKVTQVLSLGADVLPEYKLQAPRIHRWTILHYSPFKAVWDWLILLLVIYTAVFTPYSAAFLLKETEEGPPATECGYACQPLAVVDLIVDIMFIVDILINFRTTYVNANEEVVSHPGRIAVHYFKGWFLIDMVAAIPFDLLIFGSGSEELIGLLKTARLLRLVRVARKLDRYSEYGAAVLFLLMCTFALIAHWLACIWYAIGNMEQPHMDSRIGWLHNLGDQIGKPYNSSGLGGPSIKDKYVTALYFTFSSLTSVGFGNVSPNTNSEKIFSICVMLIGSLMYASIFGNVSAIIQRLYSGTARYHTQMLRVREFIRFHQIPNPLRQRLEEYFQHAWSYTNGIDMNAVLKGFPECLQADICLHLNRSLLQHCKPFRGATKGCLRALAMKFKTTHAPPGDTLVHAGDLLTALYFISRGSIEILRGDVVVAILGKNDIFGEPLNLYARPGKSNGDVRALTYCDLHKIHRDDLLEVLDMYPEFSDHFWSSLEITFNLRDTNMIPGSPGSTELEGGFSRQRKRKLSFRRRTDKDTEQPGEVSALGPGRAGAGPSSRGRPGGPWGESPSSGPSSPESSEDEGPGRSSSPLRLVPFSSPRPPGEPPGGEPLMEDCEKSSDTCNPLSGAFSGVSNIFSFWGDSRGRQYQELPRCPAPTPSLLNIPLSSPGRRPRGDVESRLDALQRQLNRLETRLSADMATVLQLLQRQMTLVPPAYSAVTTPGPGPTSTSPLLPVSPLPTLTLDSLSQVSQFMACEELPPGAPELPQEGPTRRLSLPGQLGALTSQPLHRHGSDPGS
# Sequence of JAK3 JH1 kinase (P52333 822-1111 limits assumed): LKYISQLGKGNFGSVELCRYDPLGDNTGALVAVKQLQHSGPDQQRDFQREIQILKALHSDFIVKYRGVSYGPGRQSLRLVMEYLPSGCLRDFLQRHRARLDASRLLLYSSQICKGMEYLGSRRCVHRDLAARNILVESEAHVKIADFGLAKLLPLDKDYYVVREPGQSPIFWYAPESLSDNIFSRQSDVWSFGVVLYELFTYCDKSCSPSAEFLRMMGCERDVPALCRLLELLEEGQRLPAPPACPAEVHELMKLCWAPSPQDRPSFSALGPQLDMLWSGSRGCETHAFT
compound,measurement,setting,value
[2H]C([2H])([2H])NC(=O)c1nnc(NC(=O)C2CC2)cc1Nc1cccc(C(=O)Nc2cccc(C)c2)c1OC [Example 3],IC50,[1],> 10 µM
same,hERG inhibition,[2],no significant inhibition
same,Number of inflammatory cells: Leukocyte,[3]; [7],"1,241.7 ± 618.1 ×10^3"
same,Number of inflammatory cells: Lymphocyte,[3]; [7],791.7 ± 524.9 ×10^3
same,Number of inflammatory cells: Monocyte,[3]; [7],58.3 ± 37.0 ×10^3
same,Number of inflammatory cells: Neutrophil,[3]; [7],391.7 ± 206.3 ×10^3
same,"Effect on number of inflammatory cells (white blood cells, lymphocytes) compared with the model group",[3]; pre-administration before stimulation,significantly reduce the number of inflammatory cells
same,Effect on enhanced pause (Penh) values compared to the model group,"[4]; administration before stimulation, P<0.05",significantly reduce
same,Enhanced pause (Penh) value,[4]; methacholine 0 mg/mL,0.86 ± 0.31
same,Enhanced pause (Penh) value,[4]; methacholine 6.25 mg/mL,1.79 ± 0.45
same,Enhanced pause (Penh) value,[4]; methacholine 12.5 mg/mL,2.94 ± 0.66
same,IC50,[5],> 10 µM
same,IC50,[6],> 10 µM
